“Also recorded” adds a separate entry of the source.
Tests used:
[1] = tested on: T cells in gut associated lymphoid tissue (GALT) and blood; assay: Flow cytometry of T cells from jejunal biopsies (GALT) and peripheral blood of SIV-infected rhesus macaques; assay type: in vivo, rhesus macaques (Macaca mulatta)
From the text: (§1) Fifteen (15) colony bred rhesus macaques (Macaca mulatta) from the California Regional Primate Research Center, Davis, were used in this study. Animals were housed in accordance with The American Association for Accredition of Laboratory Animal Care guidelines. All animals were seronegative for simian retrovirus (SRV-1) and simian T cell leukemia virus type-1 (STLV-1). Rhesus macaques were intravenously (I.V.) infected with 100 animal infectious doses of uncloned pathogenic SIVmac251. This viral inoculum has been previously shown to cause persistent viremia and infection Of multiple tissues in vivo, leading to fatal AIDS-like disease (Mandell et al 1995). The animals were divided into the following groups • 1. Untreated Controls, necropsy at week 10 (n=3) • 2. Untreated Controls, necropsy at week 26 (n=3) • 3 PMPA treatment, necropsy at week 10 (n=3) • 4. PMPA+RDP58 treatment, necropsy at week 10 (n=3) • 5. PMPA treatment, necropsy at week 26 (n=3) • 6. PMPA+RDP58 treatment, necropsy at week 26 (n=3)
PMPA treatment was initiated at 6 weeks post-infection and was administered at 30 mg/kg, I.V. RDP58 was administered orally, dissolved in drinking water, at 2 mg/kg, 3×/week.
Jejunal biopsies and peripheral blood samples were obtained from all animals prior to infection and at 2 weeks, 6 weeks, 10 weeks, 16 weeks and 26 weeks post-infection and at necropsy. Jejunal biopsies was obtained using a pediatric gastroscope.
Jejunal pinch biopsy samples were incubated RPMI 1640 (Gibco) and collagenase (Sigma) at 37° C. and rapidly shaken for 45 minutes then subjected to Percoll (Sigma) density gradient centrifugation to enrich for T cells and eliminate tissue debris. Cells were then washed with PBS (Gibco) and allowed to equilibrate over night at 37° C. and 5% CO2 in complete RPMI 1640 (containing 10% fetal calf sera, penicillin and streptomyicin). Cells were stained for three-color flow cytometric analysis with CD3FITC, CD4PE, CD8PE, CD45RA (BD Pharmingen), CD8TC, CD69TC, CD28TC, CD25PE (Caltag). All cells were fixed in 1% paraformaldehyde in PBS and read on a Bectin Dickenson FacScan within 3 hours of staining. Flow data was analyzed using Bectin Dickenson CellQuest softwear.

SIVmac251 = assay: Plasma viral load (real time RT-PCR of SIV RNA) in SIV-infected rhesus macaques; assay type: in vivo, rhesus macaques (Macaca mulatta)
From the text: as §1, with “PMPA+RDP58 treatment, necropsy at week 26 (n=3)” left out
Primers and probes specific to the SIV RNA sequence were designed and used in the real time PCR reaction. […] The progress of the reaction is monitored through the fluorescence released by […] that is proportional to the product being formed. Thus the fluorescence intensity is directly related to the amount of input target RNA. The data was analyzed with Sequence Detector Software (SDS). […]

Compound | CD3 gated CD4+ T cells after SIV-induced depletion ([1]; GALT and blood, treatment from week 6) | % CD3 gated CD8+ cells ([1]; by week 10) | CD4+CD8+ double positive T cell counts in GALT ([1]; week 12, GALT) | plasma viral load (viral RNA copies/ml plasma) (SIVmac251; therapy started at week 6 post infection, PMPA 30 mg/kg I.V.) | stabilizing CD4+ T-cell population in GALT ([1]; GALT) | effect of RDP58 on suppression of viral loads by antiretroviral therapy (SIVmac251; RDP58 2 mg/kg orally 3x/week, alone or added to PMPA, 2 mg/kg)
C[C@H](Cn1cnc2c(N)ncnc21)OCP(=O)(O)O [PMPA, 9-R-(2-phosphonomethoxypropyl)adenine] | reversal | gradual decrease | modest changes | gradual decrease in viral load | – | –
Arg-nL-nL-nL-Arg-nL-nL-nL-Gly-Tyr [RDP58] | – | – | – | – | beneficial effects | no adverse effect; also recorded: did not interfere with or change the effect of antiretroviral therapy
